Measured values from patent US20100144708A1, “HETEROCYCLIC COMPOUNDS CONTAINING NITROGEN ATOMS OR PHARMACEUTICALLY ACCEPTABLE SALTS THEREOF, PROCESS FOR THE PREPARATION THEREOF AND PHARMACEUTICAL COMPOSITION COMPRISING THE SAME FOR TREATMENT OF CANCER” (Korea Research Instititute of Bioscience and Biotechnology, priority 2006, published 2010).

Legend:
Assay type in all cases: cell-based, Human
PC-3 (prostate cancer) = experiment: Test for inhibition of tumor cell growth (SRB), PC-3; conditions: 48 hours, SRB staining; for GI50: Homo sapiens, read-out: GI50 PC-3 (prostate ancer)
Experimental: (§1) Human tumor cell lines, PC-3 (prostate cancer, ATCC, USA), MBA-MB-231 (breast cancer, ATCC, USA), ACHN (kidney cancer, ATCC, USA), and NUGC-3 (gastric cancer, ATCC, USA) were cultured in RPMI 1640 media containing 10% fetal bovine serum (FBS).
(§2) In order to measure anticancer activity, a suitable concentration of cells in RPMI 1640 media containing 5% fetal bovine serum (about 5×10^4 cells/□) was aliquotted in 96-well plates, and cultured in 5% CO2 at 37° C. On day one after aliquoting the cells, before the cells were treated with the compounds, in order to determine their concentration, 50[…] of 50% trichloroacetic acid was added to each well of time zero (T0) plate, and cells were fixed to determine zero point. The cells treated with the compounds were fixed on each well having 50[…] of 50% trichloroacetic acid after 48 hours. The final concentrations of the test compounds were 0.01, 0.03, 0.1, 0.3, and 1[…]/□. The fixed plate was washed with water and dried, and then 100[…] of 0.4% sulphorhodamine B (SRB) dissolved in 0.1% acetic acid was added to the each well to stain the cells. The plate was allowed to stand for 30 minutes, and then washed with 0.1% acetic acid. Then, the plate was dried at room temperature, and treated with 10 mM tris base (pH 10.5) to dissolve staining reagent. An absorbance measured at 540 nm was calculated as a percentage of the control group, and then the concentration of the compound that inhibited tumor cell growth (GI50(□/□)) by 50% was determined.

[1] = test system: MBA-MB-231 (breast cancer); experiment: Test for inhibition of tumor cell growth (SRB), MBA-MB-231; conditions: 48 hours, SRB staining; for GI50: Homo sapiens
Experimental: as §1, §2

ACHN (kidney cancer) = experiment: Test for inhibition of tumor cell growth (SRB), ACHN; conditions: 48 hours, SRB staining; for GI50: Homo sapiens, ACHN
Experimental: as §1, §2

NUGC-3 (gastric cancer) = experiment: Test for inhibition of tumor cell growth (SRB), NUGC-3; conditions: 48 hours, SRB staining; for GI50: Homo sapiens, NUGC-3
Experimental: as §1, §2

Row | GI50 (PC-3 (prostate cancer)) | GI50 [1] | GI50 (ACHN (kidney cancer)) | GI50 (NUGC-3 (gastric cancer)) | Compound | GI50 PC-3 (prostate ancer) (PC-3 (prostate cancer)) | GI50 MBA-MB-231 (breast cancer) [1] | GI50 ACHN (kidney cancer) (ACHN (kidney cancer)) | GI50 NUGC-3 (gastric cancer) (NUGC-3 (gastric cancer))
1 |  |  |  |  | 1-(4-fluorobenzyl)-1-methyl-4-(octane-1-sulfonyppiperazin-1-ium bromide [Example 63] | >10 µg/mL | >10 µg/mL | >10 µg/mL | >10 µg/mL
2 |  |  |  |  | 1-allyl-1-methyl-4-(tetradecane-1-sulfonyppiperazin-1-ium bromide [Example 69] | 0.68 µg/mL | 1.16 µg/mL | 0.59 µg/mL | 0.59 µg/mL
3 |  |  |  |  | 1-ethyl-1-(3-nitrobenzyl)-4-tetradecanoylpiperazin-1-him bromide [Example 56] | 0.52 µg/mL | 1.13 µg/mL | 1.93 µg/mL | 1.22 µg/mL
4 | 0.99 µg/mL | 3.51 µg/mL | 2.39 µg/mL | 1.15 µg/mL | CCCCCCCCCCCCCCCCCCCCCC(=O)N1CC[N+](C)(C)CC1 [Example 1, 4-docosanoyl-1,1-dimethylpiperazin-1-ium iodide] |  |  |  | 
5 | > 10 µg/mL | > 10 µg/mL | > 10 µg/mL | > 10 µg/mL | CCCCCCCC(=O)N1CC[N+](C)(C)CC1.[I-] [Example 2, 1,1-dimethyl-4-octanoyl-piperazin-1-ium iodide] |  |  |  | 
6 | > 10 µg/mL | > 10 µg/mL | > 10 µg/mL | > 10 µg/mL | CCCCCCCC(=O)N1CC[N+](C)(Cc2ccccc2)CC1.[Br-] [Example 3, 1-benzyl-1-methyl-4-octanoyl-piperazin-1-ium bromide] |  |  |  | 
7 | > 10 µg/mL | > 10 µg/mL | > 10 µg/mL | > 10 µg/mL | C=CC[N+]1(C)CCN(C(=O)CCCCCCC)CC1.[Br-] [Example 4, 1-allyl-1-methyl-4-octanoyl-piperazin-1-ium bromide] |  |  |  | 
8 | > 10 µg/mL | > 10 µg/mL | > 10 µg/mL | > 10 µg/mL | CCCCCCCC(=O)N1CC[N+](C)(Cc2ccc(OC)cc2)CC1.[Cl-] [Example 5, 1-(4-methoxy-benzyl)-1-methyl-4-octanoyl-piperazin-1-ium chloride] |  |  |  | 
9 | > 10 µg/mL | > 10 µg/mL | > 10 µg/mL | > 10 µg/mL | CCCCCCCC(=O)N1CC[N+](C)(CC)CC1.[I-] [Example 6, 1-ethyl-1-methyl-4-octanoyl-piperazin-1-ium iodide] |  |  |  | 
10 | > 10 µg/mL | > 10 µg/mL | > 10 µg/mL | > 10 µg/mL | CCCCCCCC(=O)N1CC[N+](CC)(Cc2ccccc2)CC1.[Br-] [Example 7, 1-benzyl-1-ethyl-4-octanoyl-piperazin-1-ium bromide] |  |  |  | 
11 | 0.8 µg/mL | > 10 µg/mL | > 10 µg/mL | > 10 µg/mL | CCCCCCCCCC(=O)N1CC[N+](C)(Cc2ccccc2)CC1 [Example 8, 1-benzyl-4-decanoyl-1-methyl-piperazin-1-ium bromide] |  |  |  | 
12 | 1.81 µg/mL | > 10 µg/mL | > 10 µg/mL | > 10 µg/mL | C=CC[N+]1(C)CCN(C(=O)CCCCCCCCC)CC1 [Example 9, 1-allyl-4-decanoyl-1-methyl-piperazin-1-ium bromide] |  |  |  | 
13 | > 10 µg/mL | > 10 µg/mL | > 10 µg/mL | > 10 µg/mL | CCCCCCCCCC(=O)N1CC[N+](CC)(Cc2ccccc2)CC1 [Example 10, 1-benzyl-4-decanoyl-1-ethyl-piperazin-1-ium bromide] |  |  |  | 
14 | 3.07 µg/mL | > 10 µg/mL | > 10 µg/mL | > 10 µg/mL | C=CC[N+]1(CC)CCN(C(=O)CCCCCCCCC)CC1 [Example 11, 1-allyl-4-decanoyl-1-ethylpiperazin-1-ium bromide] |  |  |  | 
15 | > 10 µg/mL | > 10 µg/mL | > 10 µg/mL | > 10 µg/mL | CCCCCCCCCC(=O)N1CC[N+](C)(CC)CC1 [Example 12, 4-decanoyl-1-ethyl-1-methylpiperazin-1-ium iodide] |  |  |  | 
16 | 0.3 µg/mL | 1.29 µg/mL | > 10 µg/mL | 0.5 µg/mL | C=CC[N+]1(C)CCN(C(=O)CCCCCCCCCCCCC)CC1 [Example 13, 1-allyl-1-methyl-4-tetradecanoyl-piperazin-1-ium bromide] |  |  |  | 
17 | 0.57 µg/mL | 2.44 µg/mL | 2.37 µg/mL | 0.54 µg/mL | CCCCCCCCCCCCCC(=O)N1CC[N+](C)(CC)CC1 [Example 14, 1-ethyl-1-methyl-4-tetradecanoyl-piperazin-1-ium iodide] |  |  |  | 

Row | GI50 (PC-3 (prostate cancer)) | GI50 [1] | GI50 (ACHN (kidney cancer)) | GI50 (NUGC-3 (gastric cancer)) | Compound | GI50 PC-3 (prostate ancer) (PC-3 (prostate cancer)) | GI50 MBA-MB-231 (breast cancer) [1] | GI50 ACHN (kidney cancer) (ACHN (kidney cancer)) | GI50 NUGC-3 (gastric cancer) (NUGC-3 (gastric cancer))
18 | 1.42 µg/mL | > 10 µg/mL | > 10 µg/mL | 2.07 µg/mL | CCCCCCCCCCCCCC(=O)N1CC[N+](CC)(Cc2ccccc2)CC1 [Example 15, 1-benzyl-1-ethyl-4-tetradecanoyl-piperazin-1-ium bromide] |  |  |  | 
19 | 0.41 µg/mL | 2.49 µg/mL | 4.26 µg/mL | 0.76 µg/mL | C=CC[N+]1(CC)CCN(C(=O)CCCCCCCCCCCCC)CC1 [Example 16, 1-allyl-1-ethyl-4-tetradecanoyl-piperazin-1-ium bromide] |  |  |  | 
20 | 0.46 µg/mL | 1.28 µg/mL | 1.14 µg/mL | 0.47 µg/mL | C=CC[N+]1(C)CCN(C(=O)CCCCCCCCCCCCCCC)CC1.[Br-] [Example 17, 1-allyl-4-hexadecanoyl-1-methyl-piperazin-1-ium bromide] |  |  |  | 
21 | 0.49 µg/mL | 0.92 µg/mL | 1.31 µg/mL | 1.16 µg/mL | CCCCCCCCCCCCCCCC(=O)N1CC[N+](C)(Cc2ccc(OC)cc2)CC1.[Cl-] [Example 18, 4-hexadecanoyl-1-(4-methoxy-benzyl)-1-methyl-piperazin-1-ium chloride] |  |  |  | 
22 | 0.55 µg/mL | 1.7 µg/mL | 1.69 µg/mL | 0.63 µg/mL | C=CCCC[N+]1(C)CCN(C(=O)CCCCCCCCCCCCCCC)CC1.[Br-] [Example 19, 4-hexadecanoyl-1-methyl-1-pent-4-enyl-piperazin-1-ium bromide] |  |  |  | 
23 | 0.67 µg/mL | 1.52 µg/mL | 1.58 µg/mL | 0.72 µg/mL | C=CCC[N+]1(C)CCN(C(=O)CCCCCCCCCCCCCCC)CC1.[Br-] [Example 20, 1-but-3-enyl-4-hexadecanoyl-1-methyl-piperazin-1-ium bromide] |  |  |  | 
24 | 0.55 µg/mL | 1.16 µg/mL | 0.92 µg/mL | 0.46 µg/mL | CCCCCCCCCCCCCCCC(=O)N1CC[N+](CC)(Cc2ccccc2)CC1.[Br-] [Example 21, 1-benzyl-1-ethyl-4-hexadecanoyl-piperazin-1-ium bromide] |  |  |  | 
25 | 0.37 µg/mL | 0.68 µg/mL | 0.5 µg/mL | 0.27 µg/mL | C=CC[N+]1(CC)CCN(C(=O)CCCCCCCCCCCCCCC)CC1.[Br-] [Example 22, 1-allyl-1-ethyl-4-hexadecanoyl-piperazin-1-ium bromide] |  |  |  | 
26 | 0.8 µg/mL | 2.05 µg/mL | 1.89 µg/mL | 0.58 µg/mL | CCCCCCCCCCCCCCCC(=O)N1CC[N+](C)(CC)CC1.[I-] [Example 23, 1-ethyl-4-hexadecanoyl-1-methyl-piperazin-1-ium iodide] |  |  |  | 
27 | 0.45 µg/mL | 0.76 µg/mL | 0.78 µg/mL | 0.4 µg/mL | C=CCCC[N+]1(CC)CCN(C(=O)CCCCCCCCCCCCCCC)CC1.[Br-] [Example 24, 1-ethyl-4-hexadecanoyl-1-pent-4-enyl-piperazin-1-ium bromide] |  |  |  | 
28 | 0.4 µg/mL | 0.82 µg/mL | 2.84 µg/mL | 1.05 µg/mL | CCCCCCCCCCCCCCCCCC(=O)N1CC[N+](C)(Cc2ccccc2)CC1 [Example 25, 1-benzyl-1-methyl-4-octadecanoyl-piperazin-1-ium bromide] |  |  |  | 
29 | 0.54 µg/mL | 1.13 µg/mL | 1.79 µg/mL | 0.88 µg/mL | C=CC[N+]1(C)CCN(C(=O)CCCCCCCCCCCCCCCCC)CC1 [Example 26, 1-allyl-1-methyl-4-octadecanoyl-piperazin-1-ium bromide] |  |  |  | 
30 | 0.41 µg/mL | 1.43 µg/mL | 1.36 µg/mL | 0.67 µg/mL | CCCCCCCCCCCCCCCCCC(=O)N1CC[N+](C)(CC)CC1 [Example 27, 1-ethyl-1-methyl-4-octadecanoyl-piperazin-1-ium iodide] |  |  |  | 
31 | 3.64 µg/mL | > 10 µg/mL | > 10 µg/mL | 5.21 µg/mL | CCCCCCCCCCCCCCCCCC(=O)N1CC[N+](CC)(Cc2ccccc2)CC1 [Example 28, 1-benzyl-1-ethyl-4-octadecanoyl-piperazin-1-ium bromide] |  |  |  | 
32 | 0.84 µg/mL | 2.51 µg/mL | 2.43 µg/mL | 1.37 µg/mL | C=CC[N+]1(CC)CCN(C(=O)CCCCCCCCCCCCCCCCC)CC1 [Example 29, 1-allyl-1-ethyl-4-octadecanoyl-piperazin-1-ium bromide] |  |  |  | 
33 | 0.34 µg/mL | 1.71 µg/mL | 1.23 µg/mL | 0.61 µg/mL | CCCCCCCCCCCCCCCCCCCC(=O)N1CC[N+](C)(CC)CC1 [Example 30, 1-ethyl-4-icosanoyl-1-methylpiperazin-1-ium iodide] |  |  |  | 
